Drawing on US9776972B2, “Pyrazole derivatives as arginine methyltransferase inhibitors and uses thereof” (priority 2013, dated 2017), this text covers IC50 for 23 molecules.

As a reminder, the IC50 is the midpoint of a concentration-inhibition curve. Lower therefore signals greater potency.

This assay addresses T1, Human CARM1 (PRMT4) (Homo sapiens, UniProt Q86X55).
T1 construct: Flag-CARM1-His; made in house; host or cells: HEK 293F cells (BacMam baculovirus)
T1 sequence (Q86X55 1-585 isoform Q86X55-1): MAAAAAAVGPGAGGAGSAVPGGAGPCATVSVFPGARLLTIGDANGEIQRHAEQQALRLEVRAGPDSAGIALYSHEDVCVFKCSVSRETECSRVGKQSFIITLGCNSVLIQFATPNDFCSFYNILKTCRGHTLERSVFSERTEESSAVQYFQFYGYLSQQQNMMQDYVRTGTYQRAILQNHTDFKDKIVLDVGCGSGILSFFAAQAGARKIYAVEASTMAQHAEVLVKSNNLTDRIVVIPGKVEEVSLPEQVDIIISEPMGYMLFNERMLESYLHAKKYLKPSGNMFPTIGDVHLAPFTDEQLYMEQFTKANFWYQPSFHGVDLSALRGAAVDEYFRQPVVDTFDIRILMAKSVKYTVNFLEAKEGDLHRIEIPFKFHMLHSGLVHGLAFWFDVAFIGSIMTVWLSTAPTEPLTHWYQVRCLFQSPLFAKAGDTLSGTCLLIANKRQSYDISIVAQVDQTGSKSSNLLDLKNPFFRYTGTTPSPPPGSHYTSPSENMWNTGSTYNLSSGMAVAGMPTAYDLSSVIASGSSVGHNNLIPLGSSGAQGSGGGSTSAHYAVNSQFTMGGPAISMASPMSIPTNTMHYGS
Briefly: CARM1 Biochemical Assay (3H-SAM Flashplate, peptide substrate). The following applies: single experiment or average of multiple experiments. From the text: S-adenosylmethionine (SAM), S-adenosylhomocysteine (SAH), bicine, Tween20, dimethylsulfoxide (DMSO), bovine skin gelatin (BSG), sodium butyrate and Tris(2-carboxyethyl)phosphine hydrochloride solution (TCEP) were purchased from Sigma-Aldrich at the highest level of purity possible. ^3H-SAM was purchase from American Radiolabeled Chemicals with a specific activity of 80 Ci/mmol. 384-well streptavidin Flashplates were purchased from PerkinElmer.
Peptide representative of human histone H3 residues 16-30 was synthesized with an N-terminal linker-affinity tag motif and a C-terminal amide cap by 21st Century Biochemicals. […] The sequence was Biot-Ahx-[…]-amide and contained a monomethylated arginine at position 26 (SEQ ID NO.: 14).
Recombinant baculovirus were generated according to Bac-to-Bac kit instructions (Life Technologies). […] Infections were carried out at 37° C. for 48 hours, harvested by centrifugation, and stored at −80° C. for purification.
Column was washed with 500 mM NaCl in buffer A and Flag-CARM1-His was eluted with 200 ug/ml FLAG peptide in buffer A. Pooled fractions were dialyzed in 20 mM Tris, 150 mM NaCl, 5% glycerol and 1 mM DTT, pH 7.8.
General Procedure for CARM1 Enzyme Assays on Peptide Substrates.
The assays were all performed in a buffer consisting of 20 mM Bicine (pH=7.6), 1 mM TCEP, 0.005% BSG, and 0.002% Tween 20, prepared on the day of use. […] DMSO (1 ul) was added to Columns 11, 12, 23, 24, rows A-H for the maximum signal control and 1 ul of SAH, a known product and inhibitor of CARM1, was added to columns 11, 12, 23, 24, rows I-P for the minimum signal control. A cocktail (40 ul) containing the CARM1 enzyme was added by Multidrop Combi (Thermo-Fisher). The compounds were allowed to incubate with CARM1 for 30 min at room temperature, then a cocktail (10 ul) containing ^3H-SAM and peptide was added to initiate the reaction (final volume=51 ul). […] The assays were stopped by the addition of non-radiolabeled SAM (10 ul) to a final concentration of 300 uM, which dilutes the ^3H-SAM to a level where its incorporation into the peptide substrate is no longer detectable. 50 ul of the reaction in the 384-well polypropylene plate was then transferred to a 384-well Flashplate and the biotinylated peptides were allowed to bind to the streptavidin surface for at least 1 hour before being washed once with 0.1% Tween20 in a Biotek ELx405 plate washer. The plates were then read in a PerkinElmer TopCount plate reader to measure the quantity of ^3H-labeled peptide bound to the Flashplate surface, measured as disintegrations per minute (dpm) or alternatively, referred to as counts per minute (cpm).
Where dpm=disintegrations per minute, cmpd=signal in assay well, and min and max are the respective minimum and maximum signal controls.
Where top and bottom are the normally allowed to float, but may be fixed at 100 or 0 respectively in a 3-parameter fit. The Hill Coefficient normally allowed to float but may also be fixed at 1 in a 3-parameter fit. Y is the % inhibition and X is the compound concentration.
As to `CCn1cc(CN(C)CCNC)c(-c2ccc(OC(C)C)cc2)n1` [Compound 213], half-maximal inhibition (IC50) required 200 nM.

With `Cc1cc(F)ccc1-c1n[nH]cc1CN(C)CCN` [Compound 152], the IC50 came to 6870 nM.

With `CNCCN(C)Cc1cnn(C(C)C)c1-c1ccc(F)cc1` [Compound 16], the concentration for half-maximal inhibition (IC50) turned out to be 6740 nM.

Consider `CCOC(=O)c1cccc(-c2n[nH]cc2CN(C)CCN)c1` [Compound 150], for which the IC50 amounted to 2420 nM.

`CN(CCN)Cc1c[nH]nc1-c1cccc(N(C)C)c1` [Compound 149] came in with an IC50 of 1300 nM.

`CNCCN(C)Cc1cnn(C2CCOC2)c1-c1ccc(OC(C)C)cc1` (centres unmarked) [Compound 216] displayed an IC50 of 285 nM.

The molecule `CN(CCN)Cc1c[nH]nc1-c1cc(Cl)ccc1F` [Compound 156] returned an IC50 of 6740 nM.

`CNCCN(C)Cc1cn[nH]c1-c1cc(F)cc(F)c1` [Compound 18] displayed an IC50 of 656 nM.

With `COc1ccc(-c2n[nH]cc2CN(C)CCN)cc1` [Compound 153], the 50% inhibitory concentration (IC50) came to 2060 nM.

Take `CNCCN(C)Cc1cnn(C2CC2)c1-c1ccc(F)cc1` [Compound 14]: the IC50 was 970 nM.

Molecule `CNCCN(C)Cc1cn[nH]c1-c1ccc(C#N)cc1` [Compound 17] displayed an IC50 of 1560 nM.

`CNCCN(C)Cc1cn(C2CC2)nc1-c1ccc(F)cc1` [Compound 13]: the IC50 was 2240 nM.

The molecule `CN(CCN)Cc1n[nH]cc1-c1ccc(C2CCOCC2)cc1` [Compound 145] returned an IC50 of 4920 nM.

For `CNCCN(C)Cc1cn(Cc2ccccc2)nc1-c1ccc(OC(C)C)cc1` [Compound 217], the IC50 was 620 nM.

`C=CCn1cc(CN(C)CCNC)c(-c2ccc(OC(C)C)cc2)n1` [Compound 218] yielded a 50% inhibitory concentration (IC50) of 414 nM.

Take `Cc1ccc(-c2n[nH]cc2CN(C)CCN)cc1` [Compound 162]: the IC50 turned out to be 612 nM.

The molecule `Cc1ccccc1-c1n[nH]cc1CN(C)CCN` [Compound 161] showed an IC50 of 6130 nM.

`CNCCN(C)Cc1cn(C2CCCC2)nc1-c1ccc(OC(C)C)cc1` [Compound 214] yielded an IC50 of 168 nM.

`C=CCn1ncc(CN(C)CCNC)c1-c1ccc(OC(C)C)cc1` [Compound 219] had an IC50 of 142 nM.

`CNCCN(C)Cc1cn(C2CCOC2)nc1-c1ccc(OC(C)C)cc1` (centres unmarked) [Compound 215] gave an IC50 of 299 nM.

For `CNCCN(C)Cc1cn(C(C)C)nc1-c1ccc(F)cc1` [Compound 15], the IC50 came out at 3400 nM. This IC50 is about 11-fold higher than that of the molecule before.

`COc1ccc(-c2n[nH]cc2CN(C)CCN)c(Cl)c1` [Compound 146] showed an IC50 of 5770 nM. This IC50 lies about 1.7-fold higher than the previous one.

The molecule `COc1cc(F)ccc1-c1n[nH]cc1CN(C)CCN` [Compound 151] returned an IC50 of 8320 nM.
